Results on 8 compounds are retold here after patent US4569801A, “Alkylsulfonamidophenylalkylamines” (priority 1984, dated 1986).

Read-outs that look alike come from different tables or passages of the source.

For series [1], the system named is ventricular effective refractory period. Kind of series: Ventricular effective refractory period in halothane-anesthetized dogs. In kind it is in vivo. Particulars: for ED (+30 msec): Canis lupus familiaris; for I.D./I.V. (ratio of intraduodenal to intravenous dose): ratio of doses for +30 msec refractory period. As for the experimental part: Certain of the compounds of the present invention were tested in halothane-anesthetized dogs in an effort to evaluate the effectiveness of the compounds in increasing the ventricular effective refractory period. Table 2 provides the quantity of specified compound in mg/kg necessary to increase the aforementioned refractory period by 30 msec. when administered either intravenously or intraduadenally. The compounds were tested against clofilium and N-ethyl-N-heptyl-4-nitrobenzenebutanamine, ethanedioic acid for comparative purposes.

The conditions of series [2]: clofilium and similar quaternary ammonium salts; background; cited from earlier work.
Series [3] deals with normal canine Purkinje fibers. Kind of series: Action potential duration of normal canine Purkinje fibers superfused in vitro (standard electrophysiological techniques). In kind it is cell-based. Conditions: Canis lupus familiaris, 10^-7 M, Ringer's solution at 35° C., driven at 1 Hz, read-out: Percent Increase in Action Potential Duration (at 95% of full repolarization). As for the experimental part:
The antiarrhythmic activity of the compounds provided by the present invention was determined by the use of standard electrophysiological techniques to measure resting potential, action potential amplitude, duration, rate of rise and effective refractory periods of normal canine Purkinje fibers superfused in vitro with Ringer's solution at 35° C. and driven at a constant frequency of 1 Hz. Table 1 presents the data obtained for a number of compounds of the invention when evaluated in this test. The data presented is the percent increase in the action potential duration at 95% of full repolarization at 10^-7 M.

Where [4] appears, read: intraduodenal, read-out: quantity of compound necessary to increase the ventricular effective refractory period by 30 msec., Intraduodenal.
Where [5] appears, read: intravenous, read-out: quantity of compound necessary to increase the ventricular effective refractory period by 30 msec., Intravenous.

With `CCCCCCC[N+](CC)(CC)CCCCc1ccc(Cl)cc1` [clofilium, 4-chloro-N,N-diethyl-N-heptylbenzenebutanaminium phosphate, reference compound], the ED (+30 msec) in series [1] (setting [4]) came out at 7 mg/kg; in series [1] (setting [5]) it was 0.18 mg/kg. In addition, in series [1], the “I.D./I.V. (ratio of intraduodenal to intravenous dose)” value stood at 39. In series [2], the oral bioavailability entry is “marginal oral bioavailability”.

Regarding `CCCCCCCN(CC)CCCCc1ccc(NS(=O)(=O)CC)cc1` [Example 8, N-[4-[4-(Ethylheptylamino)butyl]phenyl]ethanesulfonamide], the activation at 0.1 µM in series [3] turned out to be 19 ± 4%.

Consider `CCCCCCCN(CC)CCCCc1cccc(NS(C)(=O)=O)c1` [Example 7, N-[3-[4-(Ethylheptylamino)butyl]phenyl]methanesulfonamide], for which the activation at 0.1 µM in series [3] is 20 ± 9%.

Consider `CCCCCCCN(CC)CCCCc1ccc([N+](=O)[O-])cc1.O=C(O)C(=O)O` [N-ethyl-N-heptyl-4-nitrobenzenebutanamine, ethanedioic acid, reference compound], for which the ED (+30 msec) in series [1] (setting [4]) was 1.1 mg/kg; in series [1] (setting [5]) it was 0.06 mg/kg. Moreover, the “I.D./I.V. (ratio of intraduodenal to intravenous dose)” value in series [1] is on record as 18.

As to `CCCCCCCN(CCCC)CCCCc1ccc(NS(C)(=O)=O)cc1` [Example 3, N-[4-[4-(Butylheptylamino)butyl]phenyl]methanesulfonamide ethanedioate], in series [3], the activation at 0.1 µM turned out to be 26 ± 4%. Also, the ED (+30 msec) in series [1] (setting [4]) was determined as 2.4 mg/kg; in series [1] (setting [5]), 0.1 mg/kg. Further, the “I.D./I.V. (ratio of intraduodenal to intravenous dose)” value in series [1] came out at 24.

Consider `CCCCCCCN(CC)CCCCc1ccc(NS(C)(=O)=O)cc1` [Example 1, N-[4-[4-(Ethylheptylamino)butyl]phenyl]methanesulfonamide ethanedioate], for which the activation at 0.1 µM in series [3] was determined as 31 ± 6%. In addition, the results for the ED (+30 msec) in series [1] (setting [4]) and in series [1] (setting [5]) were 2.2 mg/kg and 0.29 mg/kg, respectively. The “I.D./I.V. (ratio of intraduodenal to intravenous dose)” value in series [1] was determined as 8.

With `CCCCCCCN(CCCC)C(C)CCCc1ccc(NS(C)(=O)=O)cc1` (centres unmarked) [Example 4, N-[4-[4-(Butylheptylamino)pentyl]phenyl]methanesulfonamide], the ED (+30 msec) in series [1] (setting [4]) was found to be 4 mg/kg; in series [1] (setting [5]), 0.25 mg/kg. Besides, the “I.D./I.V. (ratio of intraduodenal to intravenous dose)” value in series [1] amounted to 16.

As for `CCCCCCCN(CC)C(C)CCCc1ccc(NS(C)(=O)=O)cc1` (centres unmarked) [Example 2, N-[4-[4-(Ethylheptylamino)pentyl]phenyl]methanesulfonamide 2-hydroxy-1,2,3-propanetricarboxylate], the ED (+30 msec) in series [1] (setting [4]) was determined as 8 mg/kg; in series [1] (setting [5]), 0.27 mg/kg. Moreover, the “I.D./I.V. (ratio of intraduodenal to intravenous dose)” value in series [1] was determined as 30.
